Assay results reported in US8916717B2, “Dioxaspiroketal derivatives, process for their preparation and uses thereof” (Consiglio Nazionale Delle Ricerche, priority 2006, dated 2014).
Read-outs that look alike come from different tables or passages of the source.

Key:
[1] = molecular target: Cδ protein kinase (Homo sapiens, UniProt Q05655); settings: Watters et al., 1998; cited from earlier work
[2] = test system: M14 malignant melanoma cells; assay: Cell cycle by flow cytometry analysis (propidium iodide); type: cell-based, human; settings: M14, starting from 10 μg/ml dose, after 24 hours of treatment
Protocol: (§1) For apoptosis and cellular cycle analysis, control or various concentration MS treated cells have been removed from the culture by means of trypsinization, re-suspended in PBS, washed two times with cold PBS and fixed with 50% of acetone and methanol (1:4) in PBS at 4° C. Fixed cells then were washed in PBS and stained with propidium iodide 50 μg/ml (PI) in the presence of RNase A 100 KU/ml.
(§2) Samples have been analyzed using a FACScan cytometer and fluorescence propidium red signals have been registered on linear scale. Cell fluorescence has been analyzed using a FACScan flow cytometer (Becton Dickinson, USA) using a 488 nm emitting argon laser. Data have been analyzed electronically excluding detritus and cell aggregates. In the red fluorescence, that is proportional to the DNA cell content, the apoptotic cells are represented by hypodiploid peak (cells with DNA fractioned content), easy distinguishable from the healthy cell DNA diploid peak. The fraction of the apoptotic cells is calculated integrating the pre-G1 peak. This cell fraction is representative for those having a PI decreasing coloration, considered a marker of DNA fragmentation, phenomenon associated to cell death by apoptosis. The analysis of cell cycle distribution after 24, 48 and 72 hours of MS treatment has been carried out using ModFitLT software (Becton Dickinson Immunocytometry Systems).

[3] = test system: peripheral blood lymphocytes (PBL) from healthy donors; assay: Toxicity on not tumor healthy human cells, supravital propidium iodide method; type: cell-based; settings: for % apoptotic / % necrotic / % viable: PBL, 48 hours
Protocol: […] After 24 and 48 hours of culture, treated lymphocytes have been analyzed using supravital propidium iodide method (PI).
IN short this system is based on the use of propidium iodide, a fluorescent marker for the cellular DNA that normally penetrates only into the fixed or permeable made cells. PI supravital method is based on the principle that supravital exposure to propidium (high concentration of propidium for some hours at 37° C.) of not previously permeable made cells identifies in the population apoptotic cells clearly distinguishing them from necrotic or viable ones. Cells labeled with 40 μg/ml of propidium iodide directly in culture plates, are incubated at 37° for 1 hour and 30 minutes and analyzed using the flow cytometer.

[4] = test system: MCF-7 cells; assay: Cell proliferation and viability determination (trypan blue dye exclusion cell counts); type: cell-based, human; settings: 1.25 μg/ml
Protocol: The study has been carried out using representative tumor cell lines with different histological origin: MCF-7 breast carcinoma (human), M14 (human) and B16 (murine) melanomas, H125 (human) pulmonary carcinoma, HT-29 (human) colon carcinoma, HL-60 (human) promyelocytic leukemia.
All cell lines have been cultured in RPMI-1640 (Hyclone Europe, Cramlington, UK) medium supplemented with 10% of heat inactivated (56° C., 30 minutes) bovine fetal serum (Hyclone Laboratories, Logan, Utah), 2 mM L-glutamine and antibiotics (Life Technologies Ltd., Paisley, Scotland) (complete medium, CM). Cells have been stored at 37° C. in humidified atmosphere with 5% CO2.
Cell suspensions (HL-60) have been harvested and counted. Plastic adherent cells, in semi-confluence condition, have been detached by a short exposure at 0.025% trypsin with 0.01% EDTA and counted.
All used tumor cells have been harvested, suspended in CM and seeded in 24-well plates at 10^5 cell concentration in a final volume of 2 ml/well. For adherent cells a pre-incubation for 18 hours has been carried out in order to promote the adhesion to plastic. […] The cell proliferation, viability and death have been determined by means of cell counts in trypan blue (dye exclusion test) using a hemocytometer.

[5] = molecular target: T1, telomerase (Homo sapiens, UniProt O14746); assay: Telomerasic activity (TeloTAGGG Telomerase PCR ELISA) in extracts of treated tumor cells; type: cell-based; settings: 48 hours; for telomerase enzymatic activity: 1.25 μg/ml; for inhibition at 12.5 µg/mL / inhibition at 25 µg/mL: read-out: telomerase inhibition in comparison to control
T1 construct: endogenous in cells; host or cells: MCF-7, H-125 and M14 tumour cells
Protocol: Telomerasic activity was evaluated using TeloTAGGG Telomerase PCR ELISA kit, photometric enzymatic immunoassay from Roche (Mannheim, Germany). At time of the test, frozen pellet was lysed directly in the tests-tube using 80 μl of cold extraction buffer. Telomerase amplification was carried out by PCR (30 cycles, 94° C. 30 sec; 52° C. 30 sec; 72° C. 45 sec). Telomerasic activity was determined on the cell extracts according to the protocol recommended by the supplier. Sample absorbance (OD, optical density) was measured at 450 nm in a multi-well plate reader (SpectraCount, Pakard, Meriden, Conn., USA). In order to evaluate telomerasic activity, MCF-7, H-125 and M14 tumor cells were treated for 48 hours with serial doses of methyl-spirane (from 1.25 μg/ml to 50 μg/ml) as above described. Subsequently, the cells have been detached from culture plates by trypsinization, centrifuged, pelletized, and stored at −80° C. until the use.
As to telomerase, the cells have been exposed in vitro at 1.25, 12.5, 25, 50 μg/ml of methyl-spirane and evaluated for telomerasic activity (TLMA) using ELISA assay, 48 hours after the treatment. […] Particularly, in the FIG. 10, panels A-C, the effects at various concentrations (1.25, 12.5, 25, 50) of methyl-spirane on MCF-7, H-125 and M14 cell, lines after 48 hours of treatment are shown.

[6] = test system: M14 cell line (melanoma); assay: Cell apoptosis and necrosis by flow cytometry analysis; type: cell-based, human
Protocol: as §1
as §2, with “This cell fraction is representative for those having a PI decreasing coloration, considered a marker of DNA fragmentation, phenomenon associated to cell death by apoptosis. The analysis of cell cycle distribution after 24, 48 and 72 hours of MS treatment has been carried out using ModFitLT software (Becton Dickinson Immunocytometry Systems).” left out
For the necrosis evaluation, an aliquot of not fixed cells (1×10^6) was incubated with 40 μg/ml PI for 1.5 hour at 37° C. The samples, directly in their coloring solution, have been then analyzed using FACScan flow. […] Apoptotic cells have been detected by FSC/PI dot plot as PI^dim peak, meanwhile P^− and PI^bright represent viable and necrotic cells, respectively.

[7] = test system: 60 haematological and epithelial human cancer cell lines of NCI panel; settings: 60 human cancer cell lines, NCI panel (Uckun et al., 2000); cited from earlier work

T1 sequence (O14746 whole entry): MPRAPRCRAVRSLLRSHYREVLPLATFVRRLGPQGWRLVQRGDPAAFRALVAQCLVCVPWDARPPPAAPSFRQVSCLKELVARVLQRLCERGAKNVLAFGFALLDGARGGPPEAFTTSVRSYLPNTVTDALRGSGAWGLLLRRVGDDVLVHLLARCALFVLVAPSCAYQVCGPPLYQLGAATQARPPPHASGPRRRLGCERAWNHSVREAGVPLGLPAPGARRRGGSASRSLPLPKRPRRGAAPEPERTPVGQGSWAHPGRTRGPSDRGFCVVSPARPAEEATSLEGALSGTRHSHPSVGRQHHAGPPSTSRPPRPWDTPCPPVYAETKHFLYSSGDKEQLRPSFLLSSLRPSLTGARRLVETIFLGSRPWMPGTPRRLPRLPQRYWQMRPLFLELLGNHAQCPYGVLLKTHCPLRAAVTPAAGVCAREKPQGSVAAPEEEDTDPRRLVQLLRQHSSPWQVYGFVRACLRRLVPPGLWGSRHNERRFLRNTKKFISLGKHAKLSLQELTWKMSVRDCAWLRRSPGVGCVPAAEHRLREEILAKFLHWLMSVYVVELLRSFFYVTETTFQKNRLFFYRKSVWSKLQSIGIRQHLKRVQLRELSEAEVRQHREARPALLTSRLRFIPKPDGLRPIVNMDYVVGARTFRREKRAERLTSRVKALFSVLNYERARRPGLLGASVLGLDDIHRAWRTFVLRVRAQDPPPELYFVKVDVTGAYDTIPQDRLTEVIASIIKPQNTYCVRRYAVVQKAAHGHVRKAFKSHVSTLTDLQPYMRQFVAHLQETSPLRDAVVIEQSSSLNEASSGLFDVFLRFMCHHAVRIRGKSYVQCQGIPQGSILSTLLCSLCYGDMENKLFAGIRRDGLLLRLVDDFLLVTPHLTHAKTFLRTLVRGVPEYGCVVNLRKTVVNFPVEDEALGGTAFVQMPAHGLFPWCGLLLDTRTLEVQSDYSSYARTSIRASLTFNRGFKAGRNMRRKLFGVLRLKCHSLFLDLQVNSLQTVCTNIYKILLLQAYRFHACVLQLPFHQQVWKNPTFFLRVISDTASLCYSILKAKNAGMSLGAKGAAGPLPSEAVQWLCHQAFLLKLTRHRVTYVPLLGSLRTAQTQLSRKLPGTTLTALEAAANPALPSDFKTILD
Chain of Cδ protein kinase (Q05655 whole entry): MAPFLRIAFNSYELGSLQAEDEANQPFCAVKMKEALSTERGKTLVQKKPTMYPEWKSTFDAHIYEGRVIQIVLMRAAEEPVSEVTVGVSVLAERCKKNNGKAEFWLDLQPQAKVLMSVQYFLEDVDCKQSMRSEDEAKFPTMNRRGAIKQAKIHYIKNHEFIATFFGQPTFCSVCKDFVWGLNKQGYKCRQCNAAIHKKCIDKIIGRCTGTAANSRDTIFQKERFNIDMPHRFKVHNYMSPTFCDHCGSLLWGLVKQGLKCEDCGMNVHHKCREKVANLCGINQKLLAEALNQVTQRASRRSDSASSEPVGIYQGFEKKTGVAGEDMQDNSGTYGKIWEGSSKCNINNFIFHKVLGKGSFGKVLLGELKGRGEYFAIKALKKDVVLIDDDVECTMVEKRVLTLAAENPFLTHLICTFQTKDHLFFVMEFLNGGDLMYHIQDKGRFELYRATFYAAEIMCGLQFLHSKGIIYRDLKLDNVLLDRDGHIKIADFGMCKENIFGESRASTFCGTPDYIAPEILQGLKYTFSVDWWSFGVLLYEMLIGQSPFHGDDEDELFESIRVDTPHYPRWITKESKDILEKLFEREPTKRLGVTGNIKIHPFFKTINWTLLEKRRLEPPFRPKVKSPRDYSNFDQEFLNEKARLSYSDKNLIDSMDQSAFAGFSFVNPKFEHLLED

C/C=C/C(=O)CC1CCC(C)C(CC(=O)NCC(O)C(C)C(=O)NCCCC2OC3(CCC2C)COCC(CCC(C)/C=C(\C)C(C)O)C3)O1 (centres unmarked) [B[…]]
activation of Cδ protein kinase (PKCs isoform) [1]: specific activator

CC1CCCC2(OC(O)C=CC2=O)O1 (centres unmarked) [methyl-spirane, 1,7-dioxaspiro[5,5]-8-methyl-undecen-3-en-5-oxa-2-ol]
effect on cell cycle (G1 step) [2]: increment of the G1 step
% apoptotic ([3]; 3.15 μg/ml): 2.5%
% necrotic ([3]; 3.15 μg/ml): 16%
% viable ([3]; 3.15 μg/ml): 81.5%
% apoptotic ([3]; 6.25 μg/ml): 6.4%
% necrotic ([3]; 6.25 μg/ml): 15.6%
% viable ([3]; 6.25 μg/ml): 78%
% apoptotic ([3]; 12.5 μg/ml): 30.1%
% necrotic ([3]; 12.5 μg/ml): 40.0%
% viable ([3]; 12.5 μg/ml): 29.7%
% apoptotic ([3]; 25 μg/ml): 33.1%
% necrotic ([3]; 25 μg/ml): 56.6%
% viable ([3]; 25 μg/ml): 10.0%
% apoptotic ([3]; 50 μg/ml): 21.7%
% necrotic ([3]; 50 μg/ml): 70.0%
% viable ([3]; 50 μg/ml): 8.2%
% apoptotic ([3]; 100 μg/ml): 15.0%
% necrotic ([3]; 100 μg/ml): 84.0%
% viable ([3]; 100 μg/ml): 1.0%
necrosis with respect to the control on human lymphocytes ([3]; low concentrations (for example, 1.25 μg/ml)): no increase of necrosis
effect on tumour cell growth in vitro [4]: inhibiting effects
telomerase enzymatic activity ([5]; H-125): very scarcely influenced
telomerase enzymatic activity ([5]; MCF-7): very scarcely influenced
inhibition at 12.5 µg/mL ([5]; 12.5 μg/ml, M14): 61%
inhibition at 25 µg/mL ([5]; 25 μg/ml, M14): 75%
inhibition at 50 µg/mL ([5]; 50 μg/ml, two cell lines not named (of MCF-7, H-125, M14)): 80%
telomerasic activity (TLMA) ([5]; 1.25, 12.5, 25, 50 μg/ml, all the examined cell lines): concentration-dependent reduction
inhibition at 12.5 µg/mL ([5]; MCF7, 12.5 μg/ml, MCF-7): 43%
inhibition at 25 µg/mL ([5]; MCF7, 25 μg/ml, MCF-7): 64%
inhibition at 12.5 µg/mL ([5]; NCI-H125, 12.5 μg/ml, H-125): 50%
inhibition at 25 µg/mL ([5]; NCI-H125, 25 μg/ml, H-125): 68%
apoptosis induction ([6]; M14, 25 μg/ml, after 24 hours): apoptosis is already observed
concentration-dependent increase of apoptosis ([6]; M14, concentrations higher than 1.25 μg/ml, after 72 hours of treatment): 30-50%

spongistatin 1
cytotoxicity IC50 [7]: sub-nanomolar
